Tests used:
Assay type in all cases: functional
[1] = Growth inhibition of human NCI60 cells assessed as cell growth; parameters: concentration or dose not given beside the values
[2] = Growth inhibition of human LOXIMVI cells; conditions: LOX IMVI; for CC50: read-out: LC50 (the source's name)
Malme-3M = assay: Growth inhibition of human MALME-3M cells; conditions: for CC50: read-out: LC50 (the source's name)
M14 = assay: Growth inhibition of human M14 cells; conditions: for CC50: read-out: LC50 (the source's name)
MDA-MB-435 = assay: Growth inhibition of human MDA-MB-435 cells; conditions: for CC50: read-out: LC50 (the source's name)
SK-MEL-2 = assay: Growth inhibition of human SK-MEL-2 cells; conditions: for CC50: read-out: LC50 (the source's name)
SK-MEL-28 = assay: Growth inhibition of human SK-MEL-28 cells; conditions: for CC50: read-out: LC50 (the source's name)
SK-MEL-5 = assay: Growth inhibition of human SK-MEL-5 cells
[3] = Growth inhibition of human UACC257 cells; conditions: for GI50: UACC-257; for CC50: UACC-257, read-out: LC50 (the source's name)
[4] = Growth inhibition of human UACC62 cells; conditions: for GI50: UACC-62; for CC50: UACC-62, read-out: LC50 (the source's name)
COLO 205 = assay: Growth inhibition of human COLO205 cells; conditions: for CC50: read-out: LC50 (the source's name)
[5] = Growth inhibition of human HCC2998 cells; conditions: for GI50: HCC 2998; for CC50: HCC 2998, read-out: LC50 (the source's name)
HCT-116 = assay: Growth inhibition of human HCT116 cells; conditions: for CC50: read-out: LC50 (the source's name)
[6] = Growth inhibition of human HCT15 cells; conditions: for GI50: HCT-15; for CC50: HCT-15, read-out: LC50 (the source's name)
HT-29 = assay: Growth inhibition of human HT-29 cells
KM12 = assay: Growth inhibition of human KM12 cells; conditions: for CC50: read-out: LC50 (the source's name)
SW-620 = assay: Growth inhibition of human SW620 cells; conditions: for CC50: read-out: LC50 (the source's name)
A549 = assay: Growth inhibition of human A549 cells; conditions: for CC50: read-out: LC50 (the source's name)
[7] = Growth inhibition of human EKVX cells; conditions: for CC50: read-out: LC50 (the source's name)
HOP-62 = assay: Growth inhibition of human HOP62 cells; conditions: for CC50: read-out: LC50 (the source's name)
[8] = Growth inhibition of human HOP92 cells; conditions: for GI50: HOP-92; for CC50: HOP-92, read-out: LC50 (the source's name)
NCI-H226 = assay: Growth inhibition of human NCI-H226 cells; conditions: for CC50: read-out: LC50 (the source's name)
NCI-H23 = assay: Growth inhibition of human NCI-H23 cells; conditions: for CC50: read-out: LC50 (the source's name)
NCI-H322M = assay: Growth inhibition of human NCI-H322M cells; conditions: for CC50: read-out: LC50 (the source's name)
NCI-H460 = assay: Growth inhibition of human NCI-H460 cells; conditions: for CC50: read-out: LC50 (the source's name)
NCI-H522 = assay: Growth inhibition of human NCI-H522 cells; conditions: for CC50: read-out: LC50 (the source's name)
SF-268 = assay: Growth inhibition of human SF268 cells; conditions: for CC50: read-out: LC50 (the source's name)
[9] = Growth inhibition of human SF295 cells; conditions: SF-295
[10] = Growth inhibition of human SF539 cells; conditions: for GI50: SF-539; for CC50: SF-539, read-out: LC50 (the source's name)
SNB-19 = assay: Growth inhibition of human SNB19 cells
SNB-75 = assay: Growth inhibition of human SNB75 cells; conditions: for CC50: read-out: LC50 (the source's name)
U-251 = assay: Growth inhibition of human U251 cells

C[n+]1nn(-c2ccc(Cl)cc2)c2c1C(=O)c1ccccc1C2=O.O=S(=O)([O-])C(F)(F)F
Activity [1]: 101.7%

C[n+]1nn(-c2ccc(F)cc2)c2c1C(=O)c1ccccc1C2=O.O=S(=O)([O-])C(F)(F)F
Activity [1]: 43.38%
GI50 [2]: 1.35 µM
CC50 [2]: 8.17 µM
GI50 (Malme-3M): 0.35 µM
CC50 (Malme-3M): 4.75 µM
GI50 (M14): 0.34 µM
CC50 (M14): 3.89 µM
GI50 (MDA-MB-435): 0.26 µM
CC50 (MDA-MB-435): 2.21 µM
GI50 (SK-MEL-2): 2.27 µM
CC50 (SK-MEL-2): 33.7 µM
GI50 (SK-MEL-28): 4.27 µM
CC50 (SK-MEL-28): 45.9 µM
GI50 (SK-MEL-5): 0.17 µM
LC50 (lethal concentration 50) (SK-MEL-5): 0.6 µM
GI50 [3]: 0.6 µM
CC50 [3]: 6.93 µM
GI50 [4]: 1.55 µM
CC50 [4]: 7.67 µM
GI50 (COLO 205): 0.35 µM
CC50 (COLO 205): 3.54 µM
GI50 [5]: 1.4 µM
CC50 [5]: 8.22 µM
GI50 (HCT-116): 1.5 µM
CC50 (HCT-116): 8.19 µM
GI50 [6]: 3.72 µM
CC50 [6]: 50.9 µM
GI50 (HT-29): 2.51 µM
LC50 (HT-29): 48 µM
GI50 (KM12): 2.4 µM
CC50 (KM12): 33.5 µM
GI50 (SW-620): 6.12 µM
CC50 (SW-620): 47.5 µM
GI50 (A549): 0.67 µM
CC50 (A549): 5.46 µM
GI50 [7]: 3.28 µM
CC50 [7]: 62 µM
GI50 (HOP-62): 2.4 µM
CC50 (HOP-62): 32.9 µM
GI50 [8]: 10.7 µM
CC50 [8]: > 100 µM
GI50 (NCI-H226): 2.26 µM
CC50 (NCI-H226): 23 µM
GI50 (NCI-H23): 0.82 µM
CC50 (NCI-H23): 7.25 µM
GI50 (NCI-H322M): 0.45 µM
CC50 (NCI-H322M): 4.22 µM
GI50 (NCI-H460): 0.63 µM
CC50 (NCI-H460): 9 µM
GI50 (NCI-H522): 12.1 µM
CC50 (NCI-H522): 53.8 µM
GI50 (SF-268): 3.67 µM
CC50 (SF-268): 46 µM
GI50 [9]: 0.58 µM
LC50 (concentration killing 50% of cells) [9]: 4.94 µM
GI50 [10]: 1.83 µM
CC50 [10]: 8.4 µM
GI50 (SNB-19): 1.37 µM
LC50 (SNB-19): 5.88 µM
GI50 (SNB-75): 1.94 µM
CC50 (SNB-75): 7.17 µM
GI50 (U-251): 7.86 µM
LC50 (U-251): 45.3 µM

C[n+]1nn(-c2ccc(C(F)(F)F)cc2)c2c1C(=O)c1ccccc1C2=O.O=S(=O)([O-])C(F)(F)F
Activity [1]: 58.69%
GI50 [2]: 2.68 µM
CC50 [2]: 36.8 µM
GI50 (Malme-3M): 1.84 µM
CC50 (Malme-3M): 9.35 µM
GI50 (M14): 0.54 µM
CC50 (M14): 4.38 µM
GI50 (MDA-MB-435): 1.09 µM
CC50 (MDA-MB-435): 7.28 µM
GI50 (SK-MEL-2): 12.5 µM
CC50 (SK-MEL-2): > 100 µM
GI50 (SK-MEL-28): 12.8 µM
CC50 (SK-MEL-28): 56.5 µM
GI50 (SK-MEL-5): 0.16 µM
LC50 (lethal concentration 50) (SK-MEL-5): 0.57 µM
GI50 [3]: 3.24 µM
CC50 [3]: 43.1 µM
GI50 [4]: 1.67 µM
CC50 [4]: 30.6 µM
GI50 (COLO 205): 1.32 µM
CC50 (COLO 205): 5.73 µM
GI50 [5]: 1.52 µM
CC50 [5]: 12.9 µM
GI50 (HCT-116): 3.42 µM
CC50 (HCT-116): 41.9 µM
GI50 [6]: 3.48 µM
CC50 [6]: 84 µM
GI50 (HT-29): 4.1 µM
LC50 (HT-29): > 100 µM
GI50 (KM12): 8.17 µM
CC50 (KM12): 55.9 µM
GI50 (SW-620): 14 µM
CC50 (SW-620): 64.3 µM
GI50 (A549): 0.86 µM
CC50 (A549): > 100 µM
GI50 [7]: 23.4 µM
CC50 [7]: > 100 µM
GI50 (HOP-62): 2.12 µM
CC50 (HOP-62): 26 µM
GI50 [8]: > 100 µM
CC50 [8]: > 100 µM
GI50 (NCI-H226): 10.1 µM
CC50 (NCI-H226): 89.4 µM
GI50 (NCI-H23): 0.36 µM
CC50 (NCI-H23): 5.33 µM
GI50 (NCI-H322M): 0.83 µM
CC50 (NCI-H322M): 4.86 µM
GI50 (NCI-H460): 1.4 µM
CC50 (NCI-H460): 7.77 µM
GI50 (NCI-H522): 14.3 µM
CC50 (NCI-H522): 68.2 µM
GI50 (SF-268): 18.7 µM
CC50 (SF-268): > 100 µM
GI50 [9]: 0.54 µM
LC50 (concentration killing 50% of cells) [9]: 6.74 µM
GI50 [10]: 4.68 µM
CC50 [10]: 46.7 µM
GI50 (SNB-19): 1.45 µM
LC50 (SNB-19): 6.54 µM
GI50 (SNB-75): 1.07 µM
CC50 (SNB-75): 11.2 µM
GI50 (U-251): 14 µM
LC50 (U-251): 56.8 µM
